According to patent EP4772509A1, “KINESIN KIF18A INHIBITOR, AND APPLICATION THEREOF” (Shanghai Apeiron Therapeutics Company Limited, priority 2023, dated 2025):
Where two headings read alike, the source gives them in different places.

Key:
OVCAR3 cells = assay: Cell proliferation activity test (CyQUANT Direct); assay type: cell-based; conditions: 3 days, 0.2% DMSO, CyQUANT fluorescence
Outline: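 OVCAR3 cells in RPMI-1640 with 10% FBS were seeded, then treated overnight later with compound at final 0–10 µM (0.2% DMSO) for 3 days at 37°C, 5% CO2. Proliferation was read as CyQUANT Direct fluorescence after 60 min at 37°C.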

[1] = biological target: T1, Human KIF18A (amino acid sequence 1-417) (Homo sapiens, UniProt Q8NI77); assay: Enzymatic activity test (ADP-Glo, microtubule-stimulated ATPase); assay type: biochemical; conditions: 60 µg/mL microtubules, 25 µM ATP, 2.5 nM KIF18A protein, 120 min at ambient temperature, chemiluminescence
T1 construct: purchased Viva Biotech (Shanghai) Ltd
T1 sequence (Q8NI77 1-417): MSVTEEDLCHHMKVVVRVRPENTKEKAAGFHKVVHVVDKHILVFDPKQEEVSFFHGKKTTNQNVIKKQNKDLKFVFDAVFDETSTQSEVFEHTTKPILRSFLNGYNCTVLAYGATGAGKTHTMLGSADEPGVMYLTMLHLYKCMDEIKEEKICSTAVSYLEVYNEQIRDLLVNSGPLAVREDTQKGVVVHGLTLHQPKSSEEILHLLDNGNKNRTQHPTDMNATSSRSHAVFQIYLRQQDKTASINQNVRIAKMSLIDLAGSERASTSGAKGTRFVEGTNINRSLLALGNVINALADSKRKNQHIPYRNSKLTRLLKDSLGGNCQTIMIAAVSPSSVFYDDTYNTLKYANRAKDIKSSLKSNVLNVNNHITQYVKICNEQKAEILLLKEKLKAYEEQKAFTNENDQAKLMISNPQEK
Outline: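 KIF18A (1-417) at 2.5 nM with 60 µg/mL microtubules and 25 µM ATP, compounds at 0-10 µM final, reacted 120 min at ambient temperature. ADP formed was read by ADP-Glo chemiluminescence after two 30 min room-temperature steps.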

HT29 cells = assay: CyQuant cell proliferation activity test; assay type: cell-based; conditions: HT29 at 2000 cells per well, 3 days, 0.2% DMSO, XLFIT
Outline: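 Cells seeded at 2000/well in RPMI-1640 with 10% FBS, left overnight, then exposed 3 days at 37 °C, 5% CO2 to a 9-point 3-fold series from 3000 nM (0.2% DMSO). CyQuant signal read after 1 h; IC50 from curve fit.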

Molecule | IC50 (OVCAR3 cells; Homo sapiens, OVCAR-3, 72 h) | IC50 ([1]; read-out: KIF18A IC50) | IC50 (HT29 cells; Homo sapiens, HT-29, 72 h) | IC50 ([1]; KIF18A IC50 nM) | IC50 (OVCAR3 cells) | IC50 (HT29 cells; read-out: HT-29 IC50)
Cc1cc2nc(n1)N1CCC(F)(F)C(CCCc3ccc(nc3)-c3cc(NS(=O)(=O)CCO)ccc3C(=O)N2)C1 (stereo not drawn) [Example 49, N-(1^4,1^4-difluoro-2^6-methyl-4-oxo-3-aza-2(2,4)-pyrimidin-6(2,5)-pyridin-1(1,3)-piperidin-5(1,2)-phenylheterocyclononane-5^4-yl)-2-hydroxyethane-1-sulfonamide] | 1080 nM | 187 nM | 1310 nM |  |  | 
Cc1cc2nc(n1)N1CCC(F)(F)C(CCCc3ccn(c(=O)c3)-c3cc(NS(=O)(=O)CCO)ccc3C(=O)N2)C1 (stereo not drawn) [Example 52, N-(1^4,1^4-difluoro-2^6-methyl-6^2,4-dioxo-6^1,6^2-dihydro-3-aza-2(2,4)-pyrimidin-6(1,4)-pyridin-1(1,3)-piperidin-5(1,2)-phenylheterocyclononane-5^4-yl)-2-hydroxyethane-1-sulfonamide] | > 3000 nM | 555 nM | > 3000 nM |  |  | 
COc1cc2nc(n1)N1CCC(F)(F)C(C=CCc3cccc(c3)-c3cc(NS(=O)(=O)CCO)ccc3C(=O)N2)C1 (stereo not drawn) [Example 54, N-(1^4,1^4-difluoro-2^6-methoxy-4-oxo-3-aza-2(2,4)-pyrimidin-1(1,3)-piperidin-5(1,2),6(1,3)-diphenylheterocyclonon-8-en-5^4-yl)-2-hydroxyethane-1-sulfonamide] | 867 nM |  | > 3000 nM | 1560 nM |  | 
Cc1cc2nc(n1)N1CCC(F)(F)C(C=CCc3ccc(cc3)-c3cc(NS(=O)(=O)CCO)ccc3C(=O)N2)C1 (stereo not drawn) [Example 55, N-(1^4,1^4-difluoro-2^6-methyl-4-oxo-3-aza-2(2,4)-pyrimidin-1(1,3)-piperidin-5(1,2),6(1,4)-diphenylheterocyclonon-8-en-5^4-yl)-2-hydroxyethane-1-sulfonamide] | 30 nM | 88 nM | 29 nM |  |  | 
Cc1cc2nc(n1)N1CCC(F)(F)C(C=CCC3=CC=C(S3)c3cc(NS(=O)(=O)CCO)ccc3C(=O)N2)C1 (stereo not drawn) [Example 57, N-(1^4,1^4-difluoro-2^6-methyl-4-oxo-3-aza-2(2,4)-pyrimidin-1(1,3)-piperidin-6(2,5)-thiophene-5(1,2)-benzoazacyclon-8-en-5^4-yl)-2-hydroxyethane-1-sulfonamide] | 119 nM | 52 nM | 22 nM |  |  | 
Cc1cc2nc(n1)N1CCC(F)(F)C(CCCC3=CC=C(S3)c3cc(NS(=O)(=O)CCO)ccc3C(=O)N2)C1 (stereo not drawn) [Example 58, N-(1^4,1^4-difluoro-2^6-methyl-4-oxo-3-aza-2(2,4)-pyrimidin-1(1,3)-piperidin-6(2,5)-thiophene-5(1,2)-benzoazacyclononane-5^4-yl)-2-hydroxyethane-1-sulfonamide] | 116 nM | 67 nM | 42 nM |  |  | 
Cc1cc2nc(n1)N1CCC(F)(F)[C@@H](CCCC3CCN(CC3)c3cc(NS(=O)(=O)CCO)ccc3-n3cc-2nn3)C1 [Example 85, N-((1^3S,Z)-1^4,1^4-difluoro-2^6-methyl-3^1H-2(2,4)-pyrimidin-1(1,3),5(1,4)-dipiperidin-3(4,1)-triazole-4(1,2)-benzylcyclooctyl-4^4-yl)-2-hydroxyethane-1-sulfonamide] | 60 nM | 350 nM | 76 nM |  |  | 
Cc1cc2nc(n1)N1CCC(F)(F)C(/C=C/CC3CCN(CC3)c3cc(NS(=O)(=O)CCO)c(C(=O)C4CC4)cc3-n3cc-2nn3)C1 (stereo not drawn) [Example 89, N-((3^4Z,7E)-4^5-(cyclopropanecarbonyl)-1^4,1^4-difluoro-2^6-methyl-3^1H-2(2,4)-pyrimidin-1(1,3),5(1,4)-dipiperidin-3(4,1) -triazole-4(1,2)-benzocyclooct-7-en-4^4-yl)-2-hydroxyethane-1-sulfonamide] | 171 nM | 1700 nM | 173 nM |  |  | 
CON(C)C(=O)c1cc2c(cc1NS(=O)(=O)CCO)N1CCC(C/C=C/C3CN(CCC3(F)F)c3nc(C)cc(n3)-c3cn-2nn3)CC1 (stereo not drawn) [Example 90, (3^4Z,7E)-1^4,1^4-difluoro-4^4-((2-hydroxyethyl)sulfonamido)-N-methoxy-N,2^6-dimethyl-3^1H-2(2,4)-pyrimidin-1(1,3),5(1,4) -dipiperidin-3(4,1)-triazole-4(1,2)-benzocyclooct-7-en-45-carboxamide] | 136 nM | 274 nM | 333 nM |  |  | 
Cc1cc2nc(n1)N1CCC(F)(F)C(/C=C/CC3CCN(CC3)c3cc(NS(=O)(=O)CCO)c(C(=O)O)cc3-n3cc-2nn3)C1 (stereo not drawn) [Example 91, 1^4,1^4-difluoro-4^4-((2-hydroxyethyl)sulfonamido)-2^6-methyl-3^1H-2(2,4)-pyrimidin-1(1,3),5(1,4)-dipiperidin-3(4,1)-triaz ole-4(1,2)-benzocyclooct-7-en-4^5 carboxylic acid] | > 3000 nM | 37 nM | > 3000 nM |  |  | 
COC(=O)c1cc2c(cc1NS(=O)(=O)CCO)N1CCC(C/C=C/C3CN(CCC3(F)F)c3nc(C)cc(n3)-c3cn-2nn3)CC1 (stereo not drawn) [Example 92A, methyl(3^4Z,7E)-1^4,1^4-difluoro-4^4-((2-hydroxyethyl)sulfonamido)-2^6-methyl 3^1H-2(2,4)-pyrimidin-1(1,3),5(1,4)-dipiperidin-3(4,1)-triazole-4(1,2)-benzocyclooct-7-en-4^5carboxylate] | 141 nM | 427 nM | 154 nM |  |  | 
Methyl(3^4Z,7Z)-1^4,1^4-difluoro-4^4-((2-hydroxyethyl)sulfonamido)-2^6-methyl 3^1H-2(2,4)-pyrimidin-1(1,3),5(1,4)-dipiperidin-3(4,1)-triazole-4(1,2)-benzocyclooct-7-en-4^5 carboxylate [Example 92B] |  | 405 nM |  |  | 173 nM | 164 nM
N-(1^4,1^4,5^1,5^1-tetrafluoro-2^6-methyl-4-dioxo-5^2,5^3-dihydro-5^1H-3-aza-2(2,4)-pyrimidin-1(1,3),6(1,4)-dipiperidin-5(4,5)-benzofurancyclononane-8-en-5^7-yl)-ethanesulfonamide [Example 20] |  | 410 nM |  |  | 57 nM | 69 nM
N-(1^4,1^4-difluoro-2^6-methyl-5^1,4-dioxo-5^1,5^2,5^3,5^4-tetrahydro-3-aza-2(2,4)-pyrimidin-1(1,3),6(1,4)-dipiperidin-5(5,6)-in denoheterocyclonon-8-en-5^8-yl)-2-hydroxyethane-1-sulfonamide [Example 8] |  | 48 nM |  |  | 37 nM | 43 nM
N-((1^3R,Z)-1^4,1^4-difluoro-5^1-hydroxy-2^6-methyl-4-oxo-5^2,5^3-dihydro-5^1H-3-aza-2(2,4)-pyrimidin-1(1,3),6(1,4)-dipiperi din-5(4,5)-indenoheterocyclonon-8-en-5^7-yl)-2-hydroxyethane-1-sulfonamide [Example 7] |  | 51 nM |  |  | 41 nM | 26 nM
N-((3^4Z,7E)-1^4,1^4-difluoro-2^6-methyl-3^1H-2(2,4)-pyrimidin-1(1,3),5(1,4)-dipiperidin-3(4,1)-triazole-4(1,2)-benzocyclooct-7 -en-4^4-yl)-2-hydroxyethane-1-sulfonamide [Example 81C] |  | 521 nM |  |  | 500 nM | 671 nM
N-((3^4Z,7E)-1^4,1^4-difluoro-2^6-methyl-3^1H-2(2,4)-pyrimidin-1(1,3),5(1,4)-dipiperidin-3(4,1)-triazole-4(1,2)-benzocyclooct-7 -en-4^4-yl)-2-hydroxyethane-1-sulfonamide [Example 81D] |  | 132 nM |  |  | 31 nM | 29 nM
N-((3^4Z, 7Z)-1^4,1^4-difluoro-2^6-methyl-3^1H-2(2,4)-pyrimidin-1(1,3),5(1,4)-dipiperidin-3(4,1)-triazole-4(1,2)-benzocyclooct-7-en-4^4-y 1)-2-hydroxyethane-1-sulfonamide [Example 81A] |  | 219 nM |  |  | 22 nM | 23 nM
N-((3^4Z, 7Z)-1^4,1^4-difluoro-2^6-methyl-3^1H-2(2,4)-pyrimidin-1(1,3),5(1,4)-dipiperidin-3(4,1)-triazole-4(1,2)-benzocyclooct-7-en-4^4-y 1)-2-hydroxyethane-1-sulfonamide [Example 81B] |  | 491 nM |  |  | 178 nM | 254 nM
